For orientation: IC50 means the midpoint of a concentration-inhibition curve. As a reminder, the bioavailability is dose-corrected exposure relative to a reference, in per cent. In general, solubility refers to how much of the substance goes into solution per volume. Low readings indicate a poorly soluble substance, high ones a readily soluble substance.

Data set [1] has as its system Neuroblastoma SH-SY5Y cells (SH/APPwt) with human wild-type β-APP excessively expressed. The data set can be described thus: Measurement of β-amyloid (Aβ) production inhibitory effect in cell. The class given is cell-based. The note with it: Homo sapiens, SH-SY5Y, 24 h, amount needed to inhibit Aβ production by 50%, 24 hours incubation, Amyloid β1-40 HTRF. The procedure:
Neuroblastoma SH-SY5Y cells (SH/APPwt) with human wild-type β-APP excessively expressed therein were prepared at 8×10^5 cells/mL, and 150 μl portions thereof were inoculated into each well of a 96-well culture plate (Falcon). The cells were cultured for 2 hours at 37° C. in a 5% gaseous carbon dioxide incubator. Then, a solution which had been preliminarily prepared by adding and suspending the test compound (DMSO (dimethyl sulfoxide) solution) so as to be 2 μl/50 μl medium was added to the cell sap. Namely, the final DMSO concentration was 1%, and the amount of the cell culture was 200 μl. After the incubation was performed for 24 hours from the addition of the test compound, 100 μl of the culture supernatant was collected from each fraction. The amount of the Aβ in each fraction was measured.
The […] was measured as follows. 10 μl of a homogeneous time resolved fluorescence (HTRF) measurement reagent (Amyloid β1-40 peptide; IBA Molecular Holding, S.A.) and 10 μl of the culture supernatant were put into a 384-well half area microplate (black microplate, Costar) and mixed with each other, and then left standing overnight at 4° C. while the light was shielded. Then, the fluorescence intensity (excitation wavelength: 337 nm, measurement wavelength: 620 nm and 665 nm) was measured with a Wallac 1420 multilabel counter (Perkin Elmer life sciences). The Aβ amount was determined from the count rate at each measurement wavelength (10000×Count 665/Count 620), and the amount needed to inhibit Aβ production by 50% (IC50) was calculated from at least six different dosages.

A further data set has as its target T1, CYP1A2 (Homo sapiens, UniProt P05177).
T1 construct: Enzyme, pooled human hepatic microsome 0.2 mg protein/mL; from tissue; host or cells: pooled human hepatic microsomes
T1 sequence (P05177 1-516): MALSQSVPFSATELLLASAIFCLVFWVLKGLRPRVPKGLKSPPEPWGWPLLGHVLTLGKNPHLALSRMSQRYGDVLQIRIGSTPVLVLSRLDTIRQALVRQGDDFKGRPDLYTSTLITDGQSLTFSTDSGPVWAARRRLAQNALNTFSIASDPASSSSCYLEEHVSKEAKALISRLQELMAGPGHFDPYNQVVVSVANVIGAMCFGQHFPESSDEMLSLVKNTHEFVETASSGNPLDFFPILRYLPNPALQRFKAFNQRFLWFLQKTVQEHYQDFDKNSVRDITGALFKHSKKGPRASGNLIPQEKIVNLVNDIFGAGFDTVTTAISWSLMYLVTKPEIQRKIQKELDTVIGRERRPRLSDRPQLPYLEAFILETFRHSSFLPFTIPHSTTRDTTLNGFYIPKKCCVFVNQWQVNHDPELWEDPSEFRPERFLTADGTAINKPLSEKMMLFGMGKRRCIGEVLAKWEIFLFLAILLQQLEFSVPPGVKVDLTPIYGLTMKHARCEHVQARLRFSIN
Nature of the data set: CYP inhibition test (CYP1A2). The format is in vitro ADME. Conditions: pooled human hepatic microsome, 7-ethoxyresorufin O-deethylation. The method, then: (§1) Using commercially available pooled human hepatic microsome, and employing, as markers, 7-ethoxyresorufin O-deethylation (CYP1A2), tolbutamide methyl-hydroxylation (CYP2C9), mephenyloin 4′-hydroxylation (CYP2C19), dextromethorphan O-demethylation (CYP2D6), and terfenedine hydroxylation as typical substrate metabolism reactions of human main five CYP enzyme forms (CYP1A2, 2C9, 2C19, 2D6, 3A4), an inhibitory degree of each metabolite production amount by a test compound was assessed.
(§2) The reaction conditions were as follows: […]
(§3) Each five kinds of substrates, human hepatic microsome, or a test drug in 50 mM Hepes buffer as a reaction solution was added to a 96-well plate at the composition as described above, NADPH, a cofactor, was added to initiate metabolism reactions as markers and, after the incubation at 37° C. for 15 minutes, a methanol/acetonitrile=1/1 (v/v) solution was added to stop the reaction. After the centrifugation at 3000 rpm for 15 minutes, resorufin (CYP1A2 metabolite) in the supernatant was quantified by a fluorescent multilabel counter and tributamide hydroxide (CYP2CP metabolite), mephenyloin 4′ hydroxide (CYP2C19 metabolite), […], and terfenadine alcohol (CYP3A4 metabolite) were quantified by LC/MS/MS. […]

Another data set addresses T2, CYP2C9 (Homo sapiens, UniProt P11712).
T2 construct: Enzyme, pooled human hepatic microsome 0.2 mg protein/mL; from tissue; host or cells: pooled human hepatic microsomes
The data set can be described thus: CYP inhibition test (CYP2C9). The format is in vitro ADME. Conditions: pooled human hepatic microsome, tolbutamide methyl-hydroxylation. The procedure: as §1, §2, §3

The next data set has as its target T3, CYP2C19 (Homo sapiens, UniProt P33261).
T3 construct: Enzyme, pooled human hepatic microsome 0.2 mg protein/mL; from tissue; host or cells: pooled human hepatic microsomes
Nature of the data set: CYP inhibition test (CYP2C19). The class given is in vitro ADME. Conditions: pooled human hepatic microsome, mephenyloin 4′-hydroxylation. The method, then: as §1, §2, §3

In a further data set the target is T4, CYP2D6 (Homo sapiens, UniProt P10635).
T4 construct: Enzyme, pooled human hepatic microsome 0.2 mg protein/mL; from tissue; host or cells: pooled human hepatic microsomes
T4 sequence (P10635 whole entry): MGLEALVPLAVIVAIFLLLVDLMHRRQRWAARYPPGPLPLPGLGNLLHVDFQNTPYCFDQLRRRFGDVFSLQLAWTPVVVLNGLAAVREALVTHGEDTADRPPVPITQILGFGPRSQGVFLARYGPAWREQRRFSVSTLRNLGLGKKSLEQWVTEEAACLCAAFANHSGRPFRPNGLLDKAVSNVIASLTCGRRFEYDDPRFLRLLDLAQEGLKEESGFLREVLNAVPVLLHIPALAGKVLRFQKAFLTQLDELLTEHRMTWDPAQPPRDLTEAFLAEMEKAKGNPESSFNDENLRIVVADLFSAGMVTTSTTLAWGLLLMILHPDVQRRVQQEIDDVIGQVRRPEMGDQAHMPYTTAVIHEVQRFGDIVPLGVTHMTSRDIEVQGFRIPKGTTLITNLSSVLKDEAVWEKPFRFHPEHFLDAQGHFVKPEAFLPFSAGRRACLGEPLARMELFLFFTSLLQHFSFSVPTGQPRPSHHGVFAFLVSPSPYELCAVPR
Nature of the data set: CYP inhibition test (CYP2D6). The class given is in vitro ADME. Conditions: pooled human hepatic microsome, dextromethorphan O-demethylation. The procedure: as §1, §2, §3

The target of the next data set is CYP3A4 (Homo sapiens, UniProt P08684). Nature of the data set: CYP inhibition test (CYP3A4). The class given is in vitro ADME. Set-up: Enzyme, pooled human hepatic microsome 0.2 mg protein/mL; from tissue; host or cells: pooled human hepatic microsomes. The note with it: pooled human hepatic microsome, terfenedine hydroxylation. The method, then: as §1, §2, §3
Sequence of CYP3A4 (P08684 whole entry): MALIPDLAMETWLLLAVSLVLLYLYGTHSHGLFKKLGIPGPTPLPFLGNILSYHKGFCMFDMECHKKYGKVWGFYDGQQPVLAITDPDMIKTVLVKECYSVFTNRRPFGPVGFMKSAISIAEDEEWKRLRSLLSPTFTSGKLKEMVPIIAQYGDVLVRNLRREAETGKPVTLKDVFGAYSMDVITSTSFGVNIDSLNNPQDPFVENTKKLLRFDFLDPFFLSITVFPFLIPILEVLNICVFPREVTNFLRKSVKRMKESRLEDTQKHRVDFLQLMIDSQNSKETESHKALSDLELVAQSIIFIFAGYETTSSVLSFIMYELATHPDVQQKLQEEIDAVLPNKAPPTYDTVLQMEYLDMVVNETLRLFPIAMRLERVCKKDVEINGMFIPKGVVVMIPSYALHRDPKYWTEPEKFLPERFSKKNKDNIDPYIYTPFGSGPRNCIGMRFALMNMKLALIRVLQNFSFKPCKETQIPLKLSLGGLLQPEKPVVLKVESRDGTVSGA
Another data set addresses T5, Recombinant human BACE1 (Homo sapiens, UniProt P56817).
T5 construct: purchased R&D Systems
The data set can be described thus: Assay of BACE1 inhibiting activity. The format is biochemical. Conditions: 50% inhibitory concentration against enzymatic activity, pH 5.0, 30° C., 3 hours. The method, then:
48.5 μL of substrate peptide solution (Biotin-XSEVNLDAEFRHDSGC-Eu: Xεε-amino-n-capronic acid, Eu=Europium cryptate) was added to each well of 96-hole half-area plate (a black plate: Costar Corporation), and after addition of 0.5 μl of the test compound (dissolved in […]) and 1 μl of Recombinant human BACE1 (R&D Systems), the reaction mixture was incubated at 30° C. for 3 hours. The substrate peptide was synthesized by reacting Cryptate TBPCOOH mono SMP (CIS bio international) with Biotin-XSEVNLDAEFRHDSGC (Peptide Institute, Inc.). The final concentrations of the substrate peptide and Recombinant human BACE1 were adjusted to 18 nM and 7.4 nM respectively, and the reaction was performed in sodium acetate buffer (50 mM sodium acetate, pH 5.0, 0.008% Triton X-100). After the completion of reaction, 50 μl of 8.0 μg/ml Streptavidin-XL665 (CIS bio international) dissolved in phosphate buffer (150 mM K2HPO4—KH2PO4, pH 7.0, 0.008% Triton X-100, 0.8 M KF) was added to each well and left stand at 30° C. for an hour. Then, fluorescence intensity was measured (excitation wavelength: 320 nm, measuring wavelength: 620 nm and 665 nm) using Wallac 1420 multilabel counter (Perkin Elmer life sciences). Enzymatic activity was determined from counting ratio of each wavelength (10,000×Count 665/Count 620) and 50% inhibitory concentration against the enzymatic activity was calculated.

The nature of a further data set: BA test. The class given is in vivo. The note with it: rat, plasma; SD rats, from AUCs of oral and intravenous administration. The method, then: Materials and methods for studies on oral absorption
(2) Breeding conditions: rats were allowed to freely take solid feed and sterilized tap water
(3) Dose and grouping: orally or intravenously administered at a predetermined dose; grouping was as follows (Dose depends on the compound)
Oral administration: 1 to 30 mg/kg (n=2 to 3)
Intravenous administration: 0.5 to 10 mg/kg (n=2 to 3)
(4) Preparation of dosing solution: for oral administration, in a solution or a suspension state; for intravenous administration, in a solubilized state
(5) Administration method: in oral administration, forcedly administer into ventriculus with oral probe; in intravenous administration, administer from caudal vein with a needle-equipped syringe
(6) Evaluation items: blood was collected over time, and the plasma concentration of drug was measured by LC/MS/MS
(7) Statistical analysis: regarding the transition of the plasma concentration, the area under the plasma concentration-time curve (AUC) was calculated by non-linear least squares program WinNonlin (Registered trademark), and the bioavailability (BA) was calculated from the AUCs of the oral administration group and intravenous administration group

A short description of the next data set: Metabolic stability test. The class given is in vitro ADME. Conditions: human liver microsomes 0.5 mg protein/mL, 1 mmol/L NADPH, 30 minutes at 37° C. The method, then: The target compound was reacted with commercially available pooled human liver microsomes for a predetermined time period. The residual rate was calculated by comparing the reacted sample and unreacted sample, and thus the degree of metabolism in liver was evaluated.
In 0.2 mL of a buffer (50 mmol/L tris-HCl pH 7.4, 150 mmol/L potassium chloride, 10 mmol/L magnesium chloride) containing human liver microsomes 0.5 mg protein/mL, reaction was carried out in the presence of 1 mmol/L NADPH for 0 minute or 30 minutes at 37° C. (oxidative reaction). After the reaction, 50 μL of the reaction solution was added to and mixed with 100 μL of a solution of methanol/acetonitrile=1/1 (v/v), and the mixture was centrifuged for 15 minutes at 3000 rpm. The test compound in the centrifuged supernatant was quantified by LC/MS/MS, and the residual amount of the test compound after the reaction was calculated based on the compound amount at O-minute reaction set as 100%.

A short description of the next data set: Solubility test. The format is physicochemical. The note with it: JP-I medium with 2% DMSO, pH 1.2, simulated gastric fluid, kinetic from dmso stock, turbidity after 4 hours. The procedure: A 2-fold dilution series (12 points) of a 10 mM solution of a test compound in DMSO was added to a medium (JP-I, JP-II) (2%), and solubility was assessed by 3 stages (High; >40 μM, Medium; 3-40 μM, Low; <3 μM) from a turbidity after 4 hours (crystallization information).

T5 sequence (P56817 46-501): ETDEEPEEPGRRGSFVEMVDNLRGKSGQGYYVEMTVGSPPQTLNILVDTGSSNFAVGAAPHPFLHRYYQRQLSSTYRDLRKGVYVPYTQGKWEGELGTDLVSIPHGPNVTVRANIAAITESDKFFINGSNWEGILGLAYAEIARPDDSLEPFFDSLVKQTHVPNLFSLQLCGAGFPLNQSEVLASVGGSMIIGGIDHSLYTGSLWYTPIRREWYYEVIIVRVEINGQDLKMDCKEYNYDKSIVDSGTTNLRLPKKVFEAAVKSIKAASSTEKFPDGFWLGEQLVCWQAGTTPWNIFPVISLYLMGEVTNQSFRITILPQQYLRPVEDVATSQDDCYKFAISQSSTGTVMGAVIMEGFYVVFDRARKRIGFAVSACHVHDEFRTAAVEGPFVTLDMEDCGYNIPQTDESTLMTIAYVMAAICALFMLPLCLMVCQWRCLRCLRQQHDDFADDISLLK
T3 sequence (P33261 whole entry): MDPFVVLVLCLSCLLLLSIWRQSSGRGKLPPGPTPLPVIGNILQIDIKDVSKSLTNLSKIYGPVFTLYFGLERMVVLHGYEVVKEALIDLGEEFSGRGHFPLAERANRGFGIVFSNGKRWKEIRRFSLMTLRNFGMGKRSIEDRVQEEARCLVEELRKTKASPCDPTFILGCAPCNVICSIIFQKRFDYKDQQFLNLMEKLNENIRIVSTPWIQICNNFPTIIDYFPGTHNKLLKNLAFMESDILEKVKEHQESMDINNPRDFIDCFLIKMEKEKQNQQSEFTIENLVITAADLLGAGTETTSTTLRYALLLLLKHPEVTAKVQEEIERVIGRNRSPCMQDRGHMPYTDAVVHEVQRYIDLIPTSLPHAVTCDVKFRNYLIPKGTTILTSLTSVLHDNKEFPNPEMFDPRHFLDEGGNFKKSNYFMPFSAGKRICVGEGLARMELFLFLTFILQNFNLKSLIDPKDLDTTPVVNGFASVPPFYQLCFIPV
T2 sequence (P11712 whole entry): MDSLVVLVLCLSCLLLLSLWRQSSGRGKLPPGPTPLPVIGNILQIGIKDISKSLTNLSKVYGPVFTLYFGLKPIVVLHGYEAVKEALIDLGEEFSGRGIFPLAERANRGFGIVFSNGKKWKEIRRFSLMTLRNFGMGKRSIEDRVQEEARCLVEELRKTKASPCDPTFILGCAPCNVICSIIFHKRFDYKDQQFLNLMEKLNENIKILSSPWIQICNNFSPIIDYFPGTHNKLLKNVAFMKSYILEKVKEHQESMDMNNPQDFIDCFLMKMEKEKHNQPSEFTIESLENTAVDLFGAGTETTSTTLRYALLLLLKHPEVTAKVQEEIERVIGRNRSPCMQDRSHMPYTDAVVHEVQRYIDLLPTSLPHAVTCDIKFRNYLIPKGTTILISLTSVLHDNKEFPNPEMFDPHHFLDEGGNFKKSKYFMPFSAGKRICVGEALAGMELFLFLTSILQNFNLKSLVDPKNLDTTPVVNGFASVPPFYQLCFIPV

In the case of `N#Cc1ccc(C(=O)Nc2cccc(C/N=C(\N)OCCCO)c2)nc1` [Compound 36], the IC50 in [1] was at most 1 µM; against CYP1A2 it was over 20 µM; against CYP2C9, over 20 µM; at CYP2C19, over 20 µM; against CYP2D6 it was over 20 µM; against CYP3A4 it was over 20 µM.

On to `CO/C(N)=N\C1(c2cccc(NC(=O)c3cnc(C)cn3)c2)CC1` [Compound 41], for which the IC50 is at most 1 µM in [1]; over 20 µM against CYP1A2; over 20 µM on CYP2C9; over 20 µM against CYP2C19; over 20 µM on CYP2D6; over 20 µM at CYP3A4.

For `CO/C(N)=N/C(c1ccccc1)c1cccc(NC(=O)c2ccc(C#N)cn2)c1` (centres unmarked) [Compound 48], the IC50 (on Recombinant human BACE1; in [1]) was at most 1 µM throughout. In “BA test”, this molecule returned a bioavailability of 87.2%.

As for `CO/C(N)=N/C(c1ccc(F)cc1)c1cccc(NC(=O)c2ccc(C#N)cn2)c1` (centres unmarked) [Compound 50], the figures for the IC50 (on Recombinant human BACE1; in data set [1]) were 0.188 µM and at most 1 µM, respectively. Further, the “residual amount of the test compound after the reaction” value in the data set “Metabolic stability test” came out at 100%.

The molecule `CO/C(N)=N\c1cccc2ncc(NC(=O)c3ccc(C#N)cn3)cc12` [Compound 76] registered a solubility at 4 h in the data set “Solubility test” of over 40 µM. Besides, the “residual amount of the test compound after the reaction” value in “Metabolic stability test” was 98.9%.

`CO/C(N)=N\c1c(C)ccc2ccc(NC(=O)c3ccc(C#N)cn3)cc12` [Compound 77]: the IC50 (on Recombinant human BACE1; in [1]) was at most 1 µM throughout. In addition, the bioavailability in “BA test” amounted to 75%.

(Values after patent US20120015961A1, “ISOTHIOUREA DERIVATIVES OR ISOUREA DERIVATIVES HAVING BACE1 INHIBITORY ACTIVITY” (SHIONOGI & CO., LTD., priority 2009, published 2012).)
